How the values were obtained:
Conditions in all cases: BNL-26 inhibitor labeled with 11C
[1] = biological target: HDAC1 (Homo sapiens, UniProt Q13547); assay: HDAC1 inhibition, previous study of 11C-labeled BNL-26; assay type: biochemical
[2] = Penetration of the brain blood vessel barrier, previous study of 11C-labeled BNL-26; assay type: in vivo
[3] = biological target: HDAC2 (Homo sapiens, UniProt Q92769); assay: HDAC2 inhibition, previous study of 11C-labeled BNL-26; assay type: biochemical
Sequence of HDAC2 (Q92769 whole entry, species assumed): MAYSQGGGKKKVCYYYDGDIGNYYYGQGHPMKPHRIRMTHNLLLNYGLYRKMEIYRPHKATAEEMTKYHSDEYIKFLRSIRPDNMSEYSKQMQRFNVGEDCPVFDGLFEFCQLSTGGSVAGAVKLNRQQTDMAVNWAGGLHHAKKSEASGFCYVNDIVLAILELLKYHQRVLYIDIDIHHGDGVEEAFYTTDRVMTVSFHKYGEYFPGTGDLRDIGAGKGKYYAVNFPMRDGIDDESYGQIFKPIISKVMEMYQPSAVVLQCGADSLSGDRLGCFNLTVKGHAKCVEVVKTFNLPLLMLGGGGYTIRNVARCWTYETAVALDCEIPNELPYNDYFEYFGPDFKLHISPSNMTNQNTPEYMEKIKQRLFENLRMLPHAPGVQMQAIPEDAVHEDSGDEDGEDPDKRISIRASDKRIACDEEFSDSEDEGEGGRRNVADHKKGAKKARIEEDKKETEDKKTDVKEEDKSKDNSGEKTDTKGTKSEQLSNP

Sequence of HDAC1 (Q13547 whole entry, species assumed): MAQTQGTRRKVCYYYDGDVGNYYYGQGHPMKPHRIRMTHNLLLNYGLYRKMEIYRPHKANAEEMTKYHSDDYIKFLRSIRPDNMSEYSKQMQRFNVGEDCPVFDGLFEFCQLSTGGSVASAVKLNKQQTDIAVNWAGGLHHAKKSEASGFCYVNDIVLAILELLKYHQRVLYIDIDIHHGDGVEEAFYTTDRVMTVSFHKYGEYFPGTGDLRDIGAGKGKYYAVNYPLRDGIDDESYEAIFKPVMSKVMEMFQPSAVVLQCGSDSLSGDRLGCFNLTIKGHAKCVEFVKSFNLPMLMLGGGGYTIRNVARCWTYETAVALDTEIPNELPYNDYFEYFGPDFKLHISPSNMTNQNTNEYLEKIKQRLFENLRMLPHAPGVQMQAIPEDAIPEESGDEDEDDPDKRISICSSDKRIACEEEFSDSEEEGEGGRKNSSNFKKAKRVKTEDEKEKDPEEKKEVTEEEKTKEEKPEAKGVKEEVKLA

inhibitory effect of HDAC1 [1]: good inhibitory effect | ability to penetrate the brain blood vessel barrier [2]: very good | inhibitory effect of HDAC2 [3]: good inhibitory effect
SMILES: CN(C)Cc1ccc(C(=O)Nc2cc(-c3ccccc3)ccc2N)cc1 [BNL-26, N-(4-amino-[1,1′-biphenyl]-3-yl)-4-((dimethylamino)methyl)benzamide]
